Assay results taken from ChEMBL document CHEMBL4808219, “Exploration of Benzo[b]carbazole-6,11-diones as anticancer agents: Synthesis and studies of hTopoIIα inhibition and apoptotic effects” (Bioorg Med Chem Lett, 2021).
Active and inactive are the calls of the source. The rule behind the calls is not given here.

Legend:
[1] = test system: MDA-MB-231; assay: Cytotoxicity against human MDA-MB-231 cells assessed as normal nuclei at 2.5 uM by DAPI staining based fluorescence microscopic analysis (reference value: 85.71 to 88.89%); type: functional
[2] = test system: MDA-MB-231; assay: Cytotoxicity against human MDA-MB-231 cells assessed as normal nuclei at 1.5 uM by DAPI staining based fluorescence microscopic analysis (reference value: 85.71 to 88.89%); type: functional
[3] = test system: MDA-MB-231; assay: Induction of apoptosis in human MDA-MB-231cells as increase in cleaved PARP1 level by measuring fold change in cleaved PARP1 expression by Western blot analysis relative to control; type: functional
[4] = test system: MDA-MB-231; assay: Induction of apoptosis in human MDA-MB-231 cells assessed as upregulation of Bax level by measuring fold change in Bax expression by Western blot analysis relative to control; type: functional
[5] = test system: MDA-MB-231; assay: Cytotoxicity against human MDA-MB-231 cells assessed as normal nuclei at 0.5 uM by DAPI staining based fluorescence microscopic analysis (reference value: 85.71 to 88.89%); type: functional
[6] = test system: MDA-MB-231; assay: Cytotoxicity against human MDA-MB-231 cells assessed as reduction in cell viability incubated for 48 hrs by MTT assay; type: functional, cell-based; conditions: Homo sapiens, MDA-MB-231, 48 h; read-out: IC50
[7] = test system: MDA-MB-231; assay: Cytotoxicity against human MDA-MB-231 cells assessed as increase in deformation and shrinkage of nuclei by DAPI staining-based fluorescence microscopic analysis; type: functional, cell-based; conditions: dose 0.5-2.5 µM
[8] = Downregulation of cyclinB1 protein expression in human MDA-MB-231cells assessed as fold change in cyclin B1 expression at IC50 after 48 hrs by Western blot analysis relative to control; type: functional
[9] = test system: MDA-MB-231; assay: Induction of apoptosis in human MDA-MB-231 cells assessed as late apoptotic cells at IC50 by Annexin V/FITC-propidium iodide staining-based flow cytometric method (reference value: 1.2 +/- 0.3 %); type: functional
[10] = test system: MDA-MB-231; assay: Cytotoxicity against human MDA-MB-231 cells assessed as apoptotic nuclei at 1.5 uM by DAPI staining based fluorescence microscopic analysis (reference value: 11.11 to 14.29%); type: functional
[11] = test system: MDA-MB-231; assay: Cytotoxicity against human MDA-MB-231 cells assessed as apoptotic nuclei at 2.5 uM by DAPI staining based fluorescence microscopic analysis (reference value: 11.11 to 14.29%); type: functional
[12] = test system: MDA-MB-231; assay: Cell cycle arrest in human MDA-MB-231 cells assessed as accumulation at G2/M phase at IC50 measured after 48 hrs by propidium iodide staining based FACS analysis (reference value: 30.8+/-1.6 %); type: functional
[13] = Cytotoxicity against human H357 cells assessed as reduction in cell viability incubated for 48 hrs by MTT assay; type: functional, cell-based; conditions: Homo sapiens, H357, 48 h; read-out: IC50
[14] = test system: MDA-MB-231; assay: Cell cycle arrest in human MDA-MB-231 cells assessed as accumulation at G1 phase at IC50 measured after 48 hrs by propidium iodide staining based FACS analysis (reference value: 59.3+/-2.9 %); type: functional
[15] = Upregulation of p21 protein expression in human MDA-MB-231cells assessed as fold change in p21 expression at IC50 after 48 hrs by Western blot analysis relative to control; type: functional
[16] = test system: MCF-10A; assay: Cytotoxicity against human MCF-10A cells; type: cell-based
[17] = test system: MDA-MB-231; assay: Induction of apoptosis in human MDA-MB-231 cells assessed as early apoptotic cells at IC50 by Annexin V/FITC-propidium iodide staining-based flow cytometric method (reference value: 7.1 +/- 0.4 %); type: functional
[18] = test system: MDA-MB-231; assay: Cell cycle arrest in human MDA-MB-231 cells assessed as accumulation at sub G1 phase at IC50 measured after 48 hrs by propidium iodide staining based FACS analysis (reference value: 0.7+/-0.2 %); type: functional
[19] = test system: MDA-MB-231; assay: Genotoxicity in human MDA-MB-231 cells assessed as induction of DNA damage at 2 uM incubated for 24 hrs by comet assay; type: functional, cell-based
[20] = test system: MDA-MB-231; assay: Cytotoxicity against human MDA-MB-231 cells assessed as normal nuclei at 2 uM by DAPI staining based fluorescence microscopic analysis (reference value: 85.71 to 95.83%); type: functional
[21] = Downregulation of NFkappaB protein expression in human MDA-MB-231cells assessed as fold change in NF-kB expression at IC50 after 48 hrs by Western blot analysis relative to control; type: functional
[22] = Downregulation of CDC6 protein expression in human MDA-MB-231cells assessed as fold change in CDC6 expression at IC50 after 48 hrs by Western blot analysis relative to control; type: functional
[23] = test system: HEK-293T; assay: Cytotoxicity against human HEK293T cells assessed as reduction in cell viability incubated for 48 hrs by MTT assay; type: cell-based
[24] = test system: MDA-MB-231; assay: Induction of apoptosis in human MDA-MB-231cells assessed as downregulation of Bcl-xl level by measuring fold change in Bcl-xl expression by Western blot analysis relative to control; type: functional
[25] = test system: MCF7; assay: Cytotoxicity against human MCF7 cells assessed as reduction in cell viability incubated for 48 hrs by MTT assay; type: functional, cell-based; conditions: Homo sapiens, MCF7, 48 h; read-out: IC50
[26] = test system: MDA-MB-231; assay: Cytotoxicity against human MDA-MB-231 cells assessed as reduction in cell survival by clonogenic assay; type: functional, cell-based
[27] = test system: MDA-MB-231; assay: Induction of apoptosis in human MDA-MB-231 cells assessed as necrotic cells at IC50 by Annexin V/FITC-propidium iodide staining-based flow cytometric method (reference value: 4.5 +/- 0.5 %); type: functional
[28] = test system: MDA-MB-231; assay: Induction of apoptosis in human MDA-MB-231 cells assessed as viable cells at IC50 by Annexin V/FITC-propidium iodide staining-based flow cytometric method (reference value: 87.2 +/- 0.7 %); type: functional
[29] = Downregulation of Cdc25A protein expression in human MDA-MB-231cells assessed as fold change in Cdc25A expression at IC50 after 48 hrs by Western blot analysis relative to control; type: functional
[30] = Upregulation of cyclinD1 protein expression in human MDA-MB-231cells assessed as fold change in cyclin D1 expression at IC50 after 48 hrs by Western blot analysis relative to control; type: functional
[31] = test system: MDA-MB-231; assay: Cytotoxicity against human MDA-MB-231 cells assessed as normal nuclei at 1 uM by DAPI staining based fluorescence microscopic analysis (reference value: 85.71 to 95.83%); type: functional
[32] = test system: MDA-MB-231; assay: Cell cycle arrest in human MDA-MB-231 cells assessed as accumulation at S phase at IC50 measured after 48 hrs by propidium iodide staining based FACS analysis (reference value: 9.2+/-0.3 %); type: functional
[33] = test system: MDA-MB-231; assay: Cytotoxicity against human MDA-MB-231 cells assessed as apoptotic nuclei at 1 uM by DAPI staining based fluorescence microscopic analysis (reference value: 4.17 to 14.29%); type: functional
[34] = test system: MDA-MB-231; assay: Cytotoxicity against human MDA-MB-231 cells assessed as apoptotic nuclei at 2 uM by DAPI staining based fluorescence microscopic analysis (reference value: 4.17 to 14.29%); type: functional
[35] = test system: MDA-MB-231; assay: Cytotoxicity against human MDA-MB-231 cells assessed as apoptotic nuclei at 0.5 uM by DAPI staining based fluorescence microscopic analysis (reference value: 11.11 to 14.29%); type: functional
[36] = Upregulation of p53 protein expression in human MDA-MB-231cells assessed as fold change in p53 expression at IC50 after 48 hrs by Western blot analysis relative to control; type: functional

| SMILES | Activity [1] [%] | Activity [2] [%] | fold change (FC) [3] | fold change (FC) [4] | Activity [5] [%] | IC50 [6] [nM] | Activity [7] | fold change (FC) [8] | Activity [9] [%] | Activity [10] [%] | Activity [11] [%] | Activity [12] [%] | IC50 [13] [nM] | Activity [14] [%] | fold change (FC) [15] | IC50 [16] [nM] | Activity [17] [%] | Activity [18] [%] | Activity [19] | Activity [20] [%] | other results |
| --- | --- | --- | --- | --- | --- | --- | --- | --- | --- | --- | --- | --- | --- | --- | --- | --- | --- | --- | --- | --- | --- |
| CN(C1=CC(=O)c2ccccc2C1=O)c1ccccc1 | 21.43 | 69.23 | 0.9 | 2.5 | 83.33 | 2000 | Dose-Dependent Effect | 0.4 | 4.8 | 30.77 | 78.57 | 24.6 | 2000 | 40.4 | 2.3 | 86000 | 22.3 | 7.9 | Active | 43.59 | fold change (FC) [21]: 0.7; fold change (FC) [22]: 0.5; IC50 [23]: 3500 nM; fold change (FC) [24]: 0.8; IC50 [25]: 1500 nM; IC50 [26]: 1200 nM; Activity [27]: 20.7%; Activity [28]: 52.2%; fold change (FC) [29]: 0.3; fold change (FC) [30]: 1.5; Activity [31]: 72.22%; Activity [32]: 27.1%; Activity [33]: 27.78%; Activity [34]: 56.41%; Activity [35]: 16.67%; fold change (FC) [36]: 2.5 |
| COc1cccc(NC2=CC(=O)c3ccccc3C2=O)c1 | 19.05 | 51.28 | 0.3 | 1.6 | 82.05 | 2100 | Dose-Dependent Effect | 0.3 | 5.3 | 48.72 | 80.95 | 23.3 | 2100 | 44.7 | 2.1 | 90000 | 26.1 | 11.8 | Active | 45.45 | fold change (FC) [21]: 0.7; fold change (FC) [22]: 0.4; IC50 [23]: 4500 nM; fold change (FC) [24]: 0.6; IC50 [25]: 2000 nM; IC50 [26]: 1500 nM; Activity [27]: 18.5%; Activity [28]: 50.1%; fold change (FC) [29]: 0.4; fold change (FC) [30]: 1.8; Activity [31]: 63.89%; Activity [32]: 20.2%; Activity [33]: 36.11%; Activity [34]: 54.55%; Activity [35]: 17.95%; fold change (FC) [36]: 2.1 |
